Experimental data reported in patent US7410975B2, “Small molecule toll-like receptor (TLR) antagonists” (Coley Pharmaceutical Group, Inc., priority 2003, dated 2008).

Target: T1, human TLR3 (hTLR3) (Homo sapiens, UniProt O15455)
T1 construct: expressed in transfected cells
T1 sequence (O15455 24-904): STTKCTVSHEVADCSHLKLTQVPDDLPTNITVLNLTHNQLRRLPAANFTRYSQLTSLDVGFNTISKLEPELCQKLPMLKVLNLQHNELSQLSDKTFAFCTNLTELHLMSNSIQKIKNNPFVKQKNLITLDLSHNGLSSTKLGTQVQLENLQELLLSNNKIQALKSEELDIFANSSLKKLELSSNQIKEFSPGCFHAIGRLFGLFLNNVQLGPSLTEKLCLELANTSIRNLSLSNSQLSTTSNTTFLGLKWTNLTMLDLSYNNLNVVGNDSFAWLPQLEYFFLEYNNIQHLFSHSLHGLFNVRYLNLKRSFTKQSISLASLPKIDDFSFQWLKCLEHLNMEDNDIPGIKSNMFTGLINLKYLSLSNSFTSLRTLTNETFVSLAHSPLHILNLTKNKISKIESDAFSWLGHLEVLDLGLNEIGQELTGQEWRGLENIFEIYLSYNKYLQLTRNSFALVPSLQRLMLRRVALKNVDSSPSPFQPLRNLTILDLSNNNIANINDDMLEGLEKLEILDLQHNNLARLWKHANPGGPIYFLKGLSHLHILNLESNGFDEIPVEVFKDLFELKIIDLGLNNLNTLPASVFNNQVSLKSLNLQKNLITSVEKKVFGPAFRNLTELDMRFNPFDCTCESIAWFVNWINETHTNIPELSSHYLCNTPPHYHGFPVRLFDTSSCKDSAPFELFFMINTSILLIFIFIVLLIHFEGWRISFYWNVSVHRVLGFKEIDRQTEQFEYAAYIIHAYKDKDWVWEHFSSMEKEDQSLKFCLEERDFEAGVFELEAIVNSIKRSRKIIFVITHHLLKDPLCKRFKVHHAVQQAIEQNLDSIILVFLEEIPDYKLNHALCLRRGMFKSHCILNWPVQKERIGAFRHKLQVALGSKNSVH
Assay: Antagonist screen, hTLR3-NFκB-293 cells, NF-κB-luciferase reporter, with EC50 of poly(I:C)
Format: cell-based
Details: compound at 0.5, 5, 50 μg/ml; EC50 concentration of poly(I:C); 16 h; NF-κB-luciferase
Procedure: The method is described in greater detail as follows. The cells for each individual cell clone (hTLR3-NFκB-293, hTLR7-NFκB-293, hTLR8-NFκB-293 and hTLR9-NFκB-293) were counted and seeded one day before the stimulation at 1.5×10^4 cells per well in 96-well cell culture plates. To become adherent the cells were incubated after seeding overnight at 37° C. in 5% CO2 humidified air.
The screen for each compound was performed at the same time for all of the receptors TLR3, TLR7, TLR8 and TLR9. Up to fifteen test compounds, each assayed in duplicate at each of three different final concentrations (0.5 μg/ml, 5 μg/ml, and 50 μg/ml), were used for 16 h cell stimulation on a single multiwell culture plate. A 4× final concentration master plate was created to prepare the different test compounds before they were added to the cells.
Controls were added as duplicates individually for each cell clone on the cell culture plate. Positive controls were used as follows (final concentrations): 50 μg/ml poly(I:C) for hTLR3-NFκB-293; 8 μM resiquimod (R848) for hTLR7-NFκB-293; 30 μM R848 for hTLR8-NFκB-293; and 2.5 μM CpG-ODN 2006 for hTLR9-NFκB-293. Media alone was used as negative control. After addition of controls and small molecules, the cell clones were additionally stimulated with the EC50 concentration of the appropriate receptor-specific ligand.
The mean value of wells H2 and H5 (each with cells and EC50 concentration of the appropriate receptor-specific ligand) divided by the mean of wells H3 and H6 (each with cells alone) yielded the baseline response (i.e., fold induction of luciferase activity) to EC50 concentration of the appropriate receptor-specific ligand.
After 16 h stimulation the supernatant was removed and the cells treated with lysis buffer and stored at −80° C. before measuring.
For each screen result a graphical documentation was performed.
The baseline result (measured with addition of the EC50 concentration of the receptor-specific ligand) for each cell culture plate was measured as described above. Antagonistic effects were measured by down regulation compared to the baseline. Antagonists were scored as follows: • 13: compounds for which there was clear down regulation at 0.5 μg/ml, 5 μg/ml, and 50 μg/ml; • 12: compounds for which there was clear down regulation at 5 μg/ml and 50 μg/ml; • 11: compounds for which there was clear down regulation only at 50 μg/ml; • —: compounds for which there was no clear down regulation even at 50 μg/ml. Agonists
Results were expressed as fold induction over baseline luciferase activity measured in the absence of poly(I:C). […] Additional screening was performed in like manner using additional small molecules selected from another library or specifically prepared for this purpose. Scoring is reported as above but as applied to TLR3.

Which “hTLR3 (inhibitory effect, antagonist score)” value does the source give for CC1NCCc2c1[nH]c1ccccc21.Cl (racemic) [compound 619, Eleagnine hydrochloride (R,S)] here?
Its value is “— (compounds for which there was no clear down regulation even at 50 μg/ml)”.

For O=C1c2c(O)cccc2Cc2cccc(O)c21 [compound 43, Anthralin], which “hTLR3 (inhibitory effect, antagonist score)” value is on record?
The value was “— (compounds for which there was no clear down regulation even at 50 μg/ml)”.

Which “hTLR3 (inhibitory effect, antagonist score)” value does the source give for CN(C)CCCN1c2ccccc2Sc2ccc(C(F)(F)F)cc21.Cl [compound 53, Triflupromazinehydrochloride] here?
Its value is 11 (compounds for which there was clear down regulation only at 50 μg/ml).

With CN(C)CCCN1c2ccccc2Sc2ccc(Cl)cc21.Cl [compound 64, Chlorpromazinehydrochloride] as the molecule, how does the “hTLR3 (inhibitory effect, antagonist score)” value read?
The value was 11 (compounds for which there was clear down regulation only at 50 μg/ml).

CN(C)CCC=C1c2ccccc2CCc2ccccc21.Cl [compound 74, Amitryptilinehydrochloride] was tested. Which “hTLR3 (inhibitory effect, antagonist score)” value did it give?
The value was “— (compounds for which there was no clear down regulation even at 50 μg/ml)”.

For OC(c1ccccc1)(c1ccccc1)C1CCNCC1 [compound 93, Azacyclonol], which “hTLR3 (inhibitory effect, antagonist score)” value is on record?
The value was “— (compounds for which there was no clear down regulation even at 50 μg/ml)”.

CN1Cc2c(N)cccc2C(c2ccccc2)C1.O=C(O)/C=C\C(=O)O (centres unmarked) [compound 108, Nomifensine maleate] was tested. Which “hTLR3 (inhibitory effect, antagonist score)” value did it give?
Its value is “— (compounds for which there was no clear down regulation even at 50 μg/ml)”.

For C[C@]12N[C@H](Cc3ccccc31)c1ccccc12.O=C(O)/C=C\C(=O)O [compound 109, Dizocilpine maleate], which “hTLR3 (inhibitory effect, antagonist score)” value is on record?
The value was “— (compounds for which there was no clear down regulation even at 50 μg/ml)”.

Which “hTLR3 (inhibitory effect, antagonist score)” value does the source give for OCCN1CCN(CCCN2c3ccccc3Sc3ccc(Cl)cc32)CC1 [compound 125, Perphenazine] here?
The value was “— (compounds for which there was no clear down regulation even at 50 μg/ml)”.

Which “hTLR3 (inhibitory effect, antagonist score)” value does the source give for CN1CCN(CCCN2c3ccccc3Sc3ccc(S(=O)(=O)N(C)C)cc32)CC1.CS(=O)(=O)O.CS(=O)(=O)O [compound 149, Thioproperasinedimesylate] here?
The value was “— (compounds for which there was no clear down regulation even at 50 μg/ml)”.

How did the “hTLR3 (inhibitory effect, antagonist score)” value turn out when Clc1ccccc1C(c1ccccc1)(c1ccccc1)n1ccnc1 [compound 267, Clotrimazole] was run?
The value was “— (compounds for which there was no clear down regulation even at 50 μg/ml)”.

CC(NCCC(c1ccccc1)c1ccccc1)c1ccccc1.Cl (centres unmarked) [compound 270, Fendiline hydrochloride] was tested. Which “hTLR3 (inhibitory effect, antagonist score)” value did it give?
Its value is 11 (compounds for which there was clear down regulation only at 50 μg/ml).

CN1CCC(=C2c3ccccc3Sc3ccccc32)CC1.O=C(O)/C=C\C(=O)O [compound 294, Pimethixene maleate] was tested. Which “hTLR3 (inhibitory effect, antagonist score)” value did it give?
Its value is 11 (compounds for which there was clear down regulation only at 50 μg/ml).

How did the “hTLR3 (inhibitory effect, antagonist score)” value turn out when O=c1[nH]c2ccccc2n1C1CCN(CCCC(c2ccc(F)cc2)c2ccc(F)cc2)CC1 [compound 308, Pimozide] was run?
Its value is 12 (compounds for which there was clear down regulation at 5 μg/ml and 50 μg/ml).

For Cl.Cl.OCCN1CCN(CC/C=C2/c3ccccc3Sc3ccc(C(F)(F)F)cc32)CC1 [compound 340, Flupentixoldihydrochloride cis-(Z)], which “hTLR3 (inhibitory effect, antagonist score)” value is on record?
The value was 11 (compounds for which there was clear down regulation only at 50 μg/ml).

How did the “hTLR3 (inhibitory effect, antagonist score)” value turn out when CNCCCN1c2ccccc2CCc2ccccc21.Cl [compound 343, Desipraminehydrochloride] was run?
Its value is 11 (compounds for which there was clear down regulation only at 50 μg/ml).

CN(C)CC/C=C1/c2ccccc2Sc2ccc(Cl)cc21.Cl [compound 348, Chlorprothixenehydrochloride] was tested. Which “hTLR3 (inhibitory effect, antagonist score)” value did it give?
Its value is 11 (compounds for which there was clear down regulation only at 50 μg/ml).

For Cc1cccc(C)c1NC(=O)CN1CCN(CCCC(c2ccc(F)cc2)c2ccc(F)cc2)CC1 [compound 381, Lidoflazine], which “hTLR3 (inhibitory effect, antagonist score)” value is on record?
The value was 11 (compounds for which there was clear down regulation only at 50 μg/ml).

Which “hTLR3 (inhibitory effect, antagonist score)” value does the source give for Cl.Cl.Fc1ccc(C(OCCN2CCN(CCCc3ccccc3)CC2)c2ccc(F)cc2)cc1 [compound 386, GBR 12909hydrochloride] here?
Its value is 11 (compounds for which there was clear down regulation only at 50 μg/ml).

How did the “hTLR3 (inhibitory effect, antagonist score)” value turn out when Nc1cccc2c1C(=O)c1cccc(N)c1C2=O [compound 413, Anthraquinone,1,5-diamino] was run?
The value was 11 (compounds for which there was clear down regulation only at 50 μg/ml).

With CN1CCC2C(C1)c1ccccc1N2Cc1ccccc1 (centres unmarked) [compound 455, Mebhydroline 1,5 naphtalenedisulfonate] as the molecule, how does the “hTLR3 (inhibitory effect, antagonist score)” value read?
The value was “— (compounds for which there was no clear down regulation even at 50 μg/ml)”.

For Cc1cccc(CN2CCN(C(c3ccccc3)c3ccc(Cl)cc3)CC2)c1.Cl.Cl (centres unmarked) [compound 457, Meclozinedihydrochioride], which “hTLR3 (inhibitory effect, antagonist score)” value is on record?
The value was “— (compounds for which there was no clear down regulation even at 50 μg/ml)”.

c1ccc2c(c1)[nH]c1cnccc12 [compound 470, norharman] was tested. Which “hTLR3 (inhibitory effect, antagonist score)” value did it give?
The value was 11 (compounds for which there was clear down regulation only at 50 μg/ml).

CN(C)CC/C=C1/c2ccccc2CSc2ccccc21.Cl [compound 488, Dosulepin hydrochloride] was tested. Which “hTLR3 (inhibitory effect, antagonist score)” value did it give?
Its value is 11 (compounds for which there was clear down regulation only at 50 μg/ml).

With CN1CCN(C(c2ccccc2)c2ccccc2)CC1.Cl [compound 510, Cyclizine hydrochloride] as the molecule, how does the “hTLR3 (inhibitory effect, antagonist score)” value read?
Its value is “— (compounds for which there was no clear down regulation even at 50 μg/ml)”.

For CN1CCCCC1CCN1c2ccccc2Sc2ccc([S+](C)[O-])cc21.O=S(=O)(O)c1ccccc1 (centres unmarked) [compound 529, Mesoridazine besylate], which “hTLR3 (inhibitory effect, antagonist score)” value is on record?
The value was “— (compounds for which there was no clear down regulation even at 50 μg/ml)”.

For CCOC(=O)Oc1c(OC)cc(C(=O)O[C@@H]2C[C@@H]3CN4CCc5c([nH]c6cc(OC)ccc56)[C@H]4C[C@@H]3[C@H](C(=O)OC)[C@H]2OC)cc1OC [compound 564, Syrosingopine], which “hTLR3 (inhibitory effect, antagonist score)” value is on record?
Its value is 13 (compounds for which there was clear down regulation at 0.5 μg/ml, 5 μg/ml, and 50 μg/ml).

With COC(=O)[C@H]1[C@H]2C[C@@H]3c4[nH]c5cc(OC)ccc5c4CCN3C[C@H]2C[C@@H](OC(=O)/C=C/c2cc(OC)c(OC)c(OC)c2)[C@@H]1OC [compound 568, Rescinnamin] as the molecule, how does the “hTLR3 (inhibitory effect, antagonist score)” value read?
Its value is “— (compounds for which there was no clear down regulation even at 50 μg/ml)”.

With CC(=O)c1ccc2c(c1)N(CCCN(C)C)c1ccccc1S2.O=C(O)/C=C\C(=O)O [compound 576, Acetopromazinemaleate salt] as the molecule, how does the “hTLR3 (inhibitory effect, antagonist score)” value read?
Its value is 11 (compounds for which there was clear down regulation only at 50 μg/ml).
